Experiments:
[1] = target: T1, hAChE (Homo sapiens, UniProt P22303); test: biochemical; conditions: for IC50: mean ± SD of three independent measurements, each in triplicate; for inhibition at 100 µM: tested at 100 µM compound concentration, read-out: %Inhibition hAChE ± SD
T1 construct: 8.3 μL of either blood cell lysate or plasma dilutions; from tissue; host or cells: blood cell lysate
Protocol: (§1) The hAChE and hBuChE activities were determined using a modified method of Ellman, as described. Briefly, hAChE and hBuChE activities were determined using a modified method of Ellman, with acetylthiocholine iodide (ATChI) and butyrylthiocholine iodide (BuTChI) as substrates, respectively. Briefly, 8.3 μL of either blood cell lysate or plasma dilutions (at least six different concentrations), 283 μL of 5 mM 5,5′-dithiobis-2-nitrobenzoic acid (DTNB) and 8.3 μL of the sample dilution in dimethyl sulfoxide (DMSO) (40 mM, 10 mM, 4 mM, 1 mM, 0.4 mM, and 0 mM) were added to the semi-micro cuvette. The reaction was initiated by addition of 33.3 μL 10 mM substrate (ATChI or BuTChI). The final proportion of DTNB and substrate was […]. The increase of absorbance (ΔA) at 436 nm for AChE and 412 nm for BuChE was measured for 1 min at 37 °C using a spectrophotometer (Synergy^TM HT Multi-Detection Microplate Reader). Each measurement was repeated six times for every concentration of enzyme preparation.

[2] = target: T2, hBuChE (Homo sapiens, UniProt P06276); test: biochemical; assay type: biochemical; conditions: for IC50: mean ± SD of three independent measurements, each in triplicate; for inhibition at 100 µM: tested at 100 µM compound concentration, read-out: % inhibition hBuChE ± SD; for SI for hBuChE: ratio hAChE IC50/hBuChE IC50
T2 construct: 8.3 μL of either blood cell lysate or plasma dilutions; from tissue; host or cells: plasma
Protocol: as §1

[3] = target: T3, POP (EC 3.4.21.26) (Homo sapiens, UniProt P48147); test: POP inhibition assay; assay type: biochemical
T3 sequence (P48147 1-710): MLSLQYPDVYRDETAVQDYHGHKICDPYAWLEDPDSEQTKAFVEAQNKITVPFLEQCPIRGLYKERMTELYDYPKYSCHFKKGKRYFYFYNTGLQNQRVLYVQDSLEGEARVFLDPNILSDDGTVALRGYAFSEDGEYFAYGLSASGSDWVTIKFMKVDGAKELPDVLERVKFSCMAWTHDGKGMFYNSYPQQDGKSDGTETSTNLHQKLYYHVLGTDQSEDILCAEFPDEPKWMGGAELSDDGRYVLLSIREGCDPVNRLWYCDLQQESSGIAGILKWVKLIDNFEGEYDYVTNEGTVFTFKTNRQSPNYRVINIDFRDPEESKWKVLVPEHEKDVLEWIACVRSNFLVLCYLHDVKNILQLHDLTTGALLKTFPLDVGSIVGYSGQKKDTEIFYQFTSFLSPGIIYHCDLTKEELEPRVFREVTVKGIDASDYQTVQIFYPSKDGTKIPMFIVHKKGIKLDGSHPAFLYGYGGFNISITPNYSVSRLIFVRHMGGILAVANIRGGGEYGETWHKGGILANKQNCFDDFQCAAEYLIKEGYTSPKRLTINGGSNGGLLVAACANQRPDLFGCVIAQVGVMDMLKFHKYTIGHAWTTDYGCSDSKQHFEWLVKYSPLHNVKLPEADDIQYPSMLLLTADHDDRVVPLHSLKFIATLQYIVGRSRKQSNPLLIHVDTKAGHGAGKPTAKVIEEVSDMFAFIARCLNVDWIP
Protocol: POP (EC 3.4.21.26) was dissolved in phosphate-buffered saline (PBS; 0.01 M Na/K phosphate buffer, pH 7.4, containing 137 mM NaCl and 2.7 mM KCl); the specific activity of the enzyme was 0.2 U/mL. The assay was performed in standard polystyrene 96-well microplates with a flat and clear bottom. Stock solutions of tested compounds were prepared in DMSO (10 mM). Dilutions (10^−3 to 10^−7 M) were prepared from the stock solution with deionized H2O; the control was performed with the same DMSO concentration. POP substrate, (Z)-Gly-Pro-p-nitroanilide, was dissolved in 50% 1,4-dioxane (5 mM). For each reaction, PBS (170 μL), tested compound (5 μL), and POP (5 μL) were incubated for 5 min at 37 °C. Then, substrate (20 μL) was added, and the microplate was incubated for 30 min at 37 °C. The formation of p-nitroanilide, directly proportional to the POP activity, was measured spectrophotometrically at 405 nm using a microplate ELISA reader (multimode microplate reader Synergy 2, BioTek Instruments, Winooski, VT, USA). […] All calculations were performed using GraphPad Prism software version 7.03 for Windows (GraphPad Software Inc., San Diego, California, USA).

T1 sequence (P22303 other isoform, or with tags, fused parts or gaps): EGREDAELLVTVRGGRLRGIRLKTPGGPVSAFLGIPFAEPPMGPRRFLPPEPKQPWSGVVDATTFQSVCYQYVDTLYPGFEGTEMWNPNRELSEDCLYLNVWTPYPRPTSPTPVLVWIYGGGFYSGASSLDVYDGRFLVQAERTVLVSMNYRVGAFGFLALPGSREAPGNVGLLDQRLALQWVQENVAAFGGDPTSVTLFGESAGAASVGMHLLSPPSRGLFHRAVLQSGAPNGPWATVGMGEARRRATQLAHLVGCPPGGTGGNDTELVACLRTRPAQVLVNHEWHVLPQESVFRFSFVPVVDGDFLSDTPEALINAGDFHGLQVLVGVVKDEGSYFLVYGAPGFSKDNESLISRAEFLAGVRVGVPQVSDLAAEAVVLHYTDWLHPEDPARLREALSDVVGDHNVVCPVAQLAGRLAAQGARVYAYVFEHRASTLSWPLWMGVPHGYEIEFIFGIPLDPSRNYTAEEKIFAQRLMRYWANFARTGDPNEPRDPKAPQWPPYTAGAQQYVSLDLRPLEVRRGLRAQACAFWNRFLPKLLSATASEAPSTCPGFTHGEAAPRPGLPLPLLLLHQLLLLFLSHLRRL

| SMILES | IC50 [1] [µM] | inhibition at 100 µM [1] [%] | IC50 [2] [µM] | inhibition at 100 µM [2] [%] | SI for hBuChE [2] | SI for hBuChE ([2]; listed as carltonine A (13)) | IC50 [3] [µM] | SI for hBuChE ([2]; listed as carltonine B (14)) |
| --- | --- | --- | --- | --- | --- | --- | --- | --- |
| COc1ccc2c3c1O[C@H]1C=CC=C[C@@]31CCN(C)C2 [3,4-Anhydrogalanthamine (3), 3,4-anhydrogalanthamine] | > 100 | 4 | > 100 | 28 ± 1 |  |  |  |  |
| COc1cc(CN(C)CCc2ccc(O)cc2)c(-c2cccc3c2N(C)CC3)cc1OC [Carltonine A (13), carltonine A] | > 100 | 2 | 0.91 ± 0.02 | 98 ± 1 | >110 | higher than 100 | 143 ± 12 |  |
| CN(CCc1ccc(O)cc1)Cc1cc2c(cc1-c1cccc3c1N(C)CC3)OCO2 [Carltonine B (14), carltonine B] | > 100 | 40 ± 1 | 0.031 ± 0.001 | 99 ± 1 | >3226 |  |  | higher than 100 |
| COc1cc(CN(CCc2ccc(O)cc2)Cc2cc(OC)c(OC)cc2-c2cccc3c2N(C)CC3)c(-c2cccc3c2N(C)CC3)cc1OC [Carltonine C (15), carltonine C] | > 100 | 9 | 14.8 ± 1.1 | 78 ± 1 | >7 |  |  |  |
| COc1cc(C=O)c(-c2cccc3c2N(C)CC3)cc1OC [Lycosinine B (1), lycosinine B] | > 100 | 28 ± 1 | > 100 | 42 ± 1 |  |  | 258 ± 14 |  |
| c1ccc2c(c1)ncc1cc3c(cc12)OCO3 [Trispheridine (2), trisphaeridine] | > 100 | 6 ± 1 | > 100 | 13 ± 1 |  |  |  |  |

Reference: paper PMC7277649, “Amaryllidaceae Alkaloids of Belladine-Type from Narcissus pseudonarcissus cv. Carlton as New Selective Inhibitors of Butyrylcholinesterase” (Biomolecules, 2020)
